In the NIST ThermoML archive (doi:10.1021/acs.jced.8b01135):

Experiment: xn = mol fraction of the nth substance listed
Settings: 102 kPa, Liquid; for speed of sound: Frequency=3 MHz, Single path-length method; for mass density: Vibrating tube method; for viscosity: Concentric cylinders viscometry

CCCCCCC1CCCCC1 [hexylcyclohexane] + CCCCCCCCCCCC
Settings | mass density [kg/m3] | speed of sound [m/s] | viscosity [mPa·s]
288.15 K, x1 = 0.1009 | 757.85 | 1322.7 | –
288.15 K, x1 = 0.1998 | 763.33 | 1328.2 | –
288.15 K, x1 = 0.3001 | 768.99 | 1334.2 | –
288.15 K, x1 = 0.4001 | 774.72 | 1340.2 | –
288.15 K, x1 = 0.5004 | 780.57 | 1346.3 | –
288.15 K, x1 = 0.5996 | 786.46 | 1352.5 | –
288.15 K, x1 = 0.7005 | 792.54 | 1359.2 | –
288.15 K, x1 = 0.7996 | 798.63 | 1365.9 | –
288.15 K, x1 = 0.8997 | 804.88 | 1373 | –
288.15 K, x1 = 1 | 811.34 | 1380.4 | –
293.15 K, x1 = 0.1002 | – | – | 1.53
293.15 K, x1 = 0.1009 | 754.24 | 1303.2 | –
293.15 K, x1 = 0.1998 | 759.72 | 1308.8 | –
293.15 K, x1 = 0.201 | – | – | 1.58
293.15 K, x1 = 0.3 | – | – | 1.64
293.15 K, x1 = 0.3001 | 765.39 | 1314.7 | –
293.15 K, x1 = 0.3998 | – | – | 1.7
293.15 K, x1 = 0.4001 | 771.13 | 1320.7 | –
293.15 K, x1 = 0.5002 | – | – | 1.76
293.15 K, x1 = 0.5004 | 776.99 | 1326.9 | –
293.15 K, x1 = 0.5996 | 782.88 | 1333.2 | –
293.15 K, x1 = 0.5999 | – | – | 1.83
293.15 K, x1 = 0.6998 | – | – | 1.91
293.15 K, x1 = 0.7005 | 788.97 | 1339.8 | –
293.15 K, x1 = 0.7996 | 795.06 | 1346.5 | –
293.15 K, x1 = 0.8001 | – | – | 1.99
293.15 K, x1 = 0.8997 | 801.31 | 1353.4 | –
293.15 K, x1 = 0.8998 | – | – | 2.08
293.15 K, x1 = 1 | 807.76 | 1360.9 | 2.19
298.15 K, x1 = 0.1009 | 750.61 | 1283.8 | –
298.15 K, x1 = 0.1998 | 756.11 | 1289.4 | –
298.15 K, x1 = 0.3001 | 761.78 | 1295.3 | –
298.15 K, x1 = 0.4001 | 767.53 | 1301.3 | –
298.15 K, x1 = 0.5004 | 773.39 | 1307.5 | –
298.15 K, x1 = 0.5996 | 779.29 | 1313.8 | –
298.15 K, x1 = 0.7005 | 785.38 | 1320.4 | –
298.15 K, x1 = 0.7996 | 791.48 | 1327.1 | –
298.15 K, x1 = 0.8997 | 797.74 | 1334 | –
298.15 K, x1 = 1 | 804.19 | 1341.4 | –
303.15 K, x1 = 0.1002 | – | – | 1.3
303.15 K, x1 = 0.1009 | 746.99 | 1264.6 | –
303.15 K, x1 = 0.1998 | 752.5 | 1270.2 | –
303.15 K, x1 = 0.201 | – | – | 1.34
303.15 K, x1 = 0.3 | – | – | 1.38
303.15 K, x1 = 0.3001 | 758.17 | 1276.1 | –
303.15 K, x1 = 0.3998 | – | – | 1.43
303.15 K, x1 = 0.4001 | 763.92 | 1282.1 | –
303.15 K, x1 = 0.5002 | – | – | 1.48
303.15 K, x1 = 0.5004 | 769.79 | 1288.3 | –
303.15 K, x1 = 0.5996 | 775.7 | 1294.6 | –
303.15 K, x1 = 0.5999 | – | – | 1.54
303.15 K, x1 = 0.6998 | – | – | 1.6
303.15 K, x1 = 0.7005 | 781.79 | 1301.2 | –
303.15 K, x1 = 0.7996 | 787.89 | 1307.8 | –
303.15 K, x1 = 0.8001 | – | – | 1.66
303.15 K, x1 = 0.8997 | 794.16 | 1314.7 | –
303.15 K, x1 = 0.8998 | – | – | 1.74
303.15 K, x1 = 1 | 800.61 | 1322.1 | 1.79
313.15 K, x1 = 0.1002 | – | – | 1.11
313.15 K, x1 = 0.1009 | 739.73 | 1226.8 | –
313.15 K, x1 = 0.1998 | 745.25 | 1232.4 | –
313.15 K, x1 = 0.201 | – | – | 1.14
313.15 K, x1 = 0.3 | – | – | 1.17
313.15 K, x1 = 0.3001 | 750.94 | 1238.3 | –
313.15 K, x1 = 0.3998 | – | – | 1.21
313.15 K, x1 = 0.4001 | 756.7 | 1244.3 | –
313.15 K, x1 = 0.5002 | – | – | 1.25
313.15 K, x1 = 0.5004 | 762.59 | 1250.5 | –
313.15 K, x1 = 0.5996 | 768.5 | 1256.8 | –
313.15 K, x1 = 0.5999 | – | – | 1.3
313.15 K, x1 = 0.6998 | – | – | 1.34
313.15 K, x1 = 0.7005 | 774.6 | 1263.4 | –
313.15 K, x1 = 0.7996 | 780.72 | 1270.1 | –
313.15 K, x1 = 0.8001 | – | – | 1.4
313.15 K, x1 = 0.8997 | 786.99 | 1276.9 | –
313.15 K, x1 = 0.8998 | – | – | 1.46
313.15 K, x1 = 1 | 793.43 | 1284.2 | 1.52
323.15 K, x1 = 0.1002 | – | – | 0.958
323.15 K, x1 = 0.1009 | 732.44 | 1189.7 | –
323.15 K, x1 = 0.1998 | 737.97 | 1195.4 | –
323.15 K, x1 = 0.201 | – | – | 0.986
323.15 K, x1 = 0.3 | – | – | 1.01
323.15 K, x1 = 0.3001 | 743.68 | 1201.3 | –
323.15 K, x1 = 0.3998 | – | – | 1.05
323.15 K, x1 = 0.4001 | 749.46 | 1207.4 | –
323.15 K, x1 = 0.5002 | – | – | 1.08
323.15 K, x1 = 0.5004 | 755.35 | 1213.6 | –
323.15 K, x1 = 0.5996 | 761.28 | 1219.8 | –
323.15 K, x1 = 0.5999 | – | – | 1.12
323.15 K, x1 = 0.6998 | – | – | 1.15
323.15 K, x1 = 0.7005 | 767.39 | 1226.4 | –
323.15 K, x1 = 0.7996 | 773.52 | 1233.1 | –
323.15 K, x1 = 0.8001 | – | – | 1.2
323.15 K, x1 = 0.8997 | 779.8 | 1239.8 | –
323.15 K, x1 = 0.8998 | – | – | 1.25
323.15 K, x1 = 1 | 786.25 | 1247.1 | 1.3
333.15 K, x1 = 0.1002 | – | – | 0.833
333.15 K, x1 = 0.1009 | 725.11 | 1153.6 | –
333.15 K, x1 = 0.1998 | 730.66 | 1159.3 | –
333.15 K, x1 = 0.201 | – | – | 0.855
333.15 K, x1 = 0.3 | – | – | 0.88
333.15 K, x1 = 0.3001 | 736.38 | 1165.3 | –
333.15 K, x1 = 0.3998 | – | – | 0.906
333.15 K, x1 = 0.4001 | 742.18 | 1171.3 | –
333.15 K, x1 = 0.5002 | – | – | 0.935
333.15 K, x1 = 0.5004 | 748.09 | 1177.6 | –
333.15 K, x1 = 0.5996 | 754.02 | 1183.9 | –
333.15 K, x1 = 0.5999 | – | – | 0.966
333.15 K, x1 = 0.6998 | – | – | 1
333.15 K, x1 = 0.7005 | 760.16 | 1190.5 | –
333.15 K, x1 = 0.7996 | 766.29 | 1197.1 | –
333.15 K, x1 = 0.8001 | – | – | 1.04
333.15 K, x1 = 0.8997 | 772.58 | 1203.6 | –
333.15 K, x1 = 0.8998 | – | – | 1.07
333.15 K, x1 = 1 | 779.05 | 1211 | 1.12
